Measurements published in patent US5798362A, “Quinazolinyl-amino derivatives having α-antagonist activity” (Recordati S.A. Chemical and Pharmaceutical Company, priority 1994, dated 1998).
Counter-ions that a name gives are not always drawn. Like-named read-outs stand apart in the source and are kept apart here.

Key:
[1] = target: α1-receptors ([3H]prazosin); assay: [3H]Prazosin binding (α1-receptors), rat cerebral cortices; details: rat cerebral cortex, 0.35 nM [3H]prazosin, 25° C., 30 min; read-out: [3H] prazosine IC50
Description: Rat cerebral cortices were homogenized in 50 volumes of original wet weight of ice-cold 50 mM Tris-HCl buffer pH 7.4. The homogenates were centrifuged at 48,000 × g for 10 minutes, and the pellets were resuspended in the same volume of ice-cold buffer, centrifuged and resuspended two more times. […] The incubations were terminated by rapid filtration through Whatman GF/B, filters using a Brandel cell harvester and the filters were washed with 3×3 ml of ice-cold buffer. The radioactivity retained on the filters was determined by liquid scintillation counting. Data analysis The inhibition of specific binding of the radioligands by the tested drugs was analyzed to estimate the IC50 value by using the non-linear curve-fitting program Allfit [A. De Lean et al., Am. J. Physiol.

in vivo = details: mouse
Description: 20-30 g b.w., were obtained from Charles River, Italy. Animals were housed with free access to food and water and maintained on forced light-dark cycle at 22°-24° C. until the day of experiments.
The acute toxicity of synthesized compounds was evaluated in female Albino Swiss mice after intraperitoneal and oral administration. Four logarithmic scaled doses of the compounds were dissolved or suspended in 0.5% Methocel and administered in a volume of 10 ml/kg to groups of 4 mice/dose. Mortality was recorded 7 days after the administration.

[2] = test system: dyastolic arterious pressure; assay: Hypotensive activity in the normotensed anesthetized rat; format: in vivo; details: iv, endovenous administration, read-out: DE25 (dose which induces a lowering of 25% of the dyastolic arterious pressure)
Description: (§1) Male Sprague Dawley rats (Crl: CD' BR) of 175-300 g b.w., male spontaneously hypertensive rats, Okamoto strain, female Albino Swiss mice [Crl:CD-1 (ICR) BR] 20-30 g b.w., were obtained from Charles River, Italy. Animals were housed with free access to food and water and maintained on forced light-dark cycle at 22°-24° C. until the day of experiments.
(§2) Evaluation of the antihypertensive activity in chateterized spontaneously hypertensive rat (SH) chronic awake and of the hypotensive activity in the normotensed anesthethized rat
Normotensed rats with were prepared surgically at the moment of the test, after anesthesia with pentobarbital. Suitable chateters were introduced in the left carotid artery and the right jugular vein. The arterious chateter end was connected to a pressure transductor which sends the signal to a polygraph preamplifier. About 30' before the administration the arterious pressure was monitored and the registration of the parameters was performed after the administration, at various time according to the test protocol.
For the endovenous administration the administered volum was 0.5-1 ml/Kg, while for the oral administration was 5 ml/Kg.
Evaluation of data: in so far as the espression of the results is concerned, the pressure data were reported as percentage of the variation in respect to the base values.

[3] = test system: dyastolic arterious pressure; assay: Antihypertensive activity in catheterized awake spontaneously hypertensive rat (SHR); format: in vivo; details: oral administration, read-out: DE25 (dose which induces a lowering of 25% of the dyastolic arterious pressure)
Description: as §1, §2
The SH rats are surgically prepared at least 24 hours before the test. The surgical operation was performed under neuroleptoanalgesia or barbituric anesthesia; the right carotid artery was exposed and a chateter suitable in dimensions and material was introducted in the vessel up to the aortic arch. […]
For endovenous administrations a second chateter similar to the one above described was introduced during the surgical operation into the left jugular vein and brought to the exterior as the arterious chateter. […] About 30' before administration the arterious pressure was monitored and the registration of the parameters was performed after administration at different times according to the test protocol. […]

cloned α1A adrenoceptor = target: T1, cloned α1A adrenoceptor (Bos taurus, UniProt P18130); assay: Radioligand binding, cloned α1A adrenoceptor (previously α1C) expressed in COS-7 cells; details: bovine brain α1A in COS-7 cells; mean of 2-4 experiments in triplicate, agreed within 10%
T1 construct: expressed in transfected cells; host or cells: COS-7 (transient)
T1 sequence (P18130 1-466): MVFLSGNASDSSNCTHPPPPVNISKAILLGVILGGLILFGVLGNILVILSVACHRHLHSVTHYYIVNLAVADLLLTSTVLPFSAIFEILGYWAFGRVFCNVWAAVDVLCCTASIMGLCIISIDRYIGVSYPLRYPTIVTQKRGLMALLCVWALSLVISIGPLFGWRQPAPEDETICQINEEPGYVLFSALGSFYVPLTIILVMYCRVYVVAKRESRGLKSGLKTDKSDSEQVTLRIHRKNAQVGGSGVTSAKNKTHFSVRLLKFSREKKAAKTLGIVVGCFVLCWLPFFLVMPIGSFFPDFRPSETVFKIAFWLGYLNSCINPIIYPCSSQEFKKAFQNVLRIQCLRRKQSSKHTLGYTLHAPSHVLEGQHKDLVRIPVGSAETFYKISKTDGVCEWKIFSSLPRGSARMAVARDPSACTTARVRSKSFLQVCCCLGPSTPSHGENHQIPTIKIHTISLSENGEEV
Description: (§3) Cloned animal α1 adrenoceptors
(§4) COS-7 cells were grown as monolayers in Dulbecco's modified Eagle's medium (DMEM), supplemented with 25 mM glucose, 10% bovine calf serum, 100 units/ml penicillin and 100 μg/ml streptomicyn sulfate.
(§5) Transfected cells from colture flask were washed two times with 5 ml phosphate buffered saline (PBS), scraped into 2 ml of 5 mM Tris-HCl, pH 7.4, containing 5 mM EDTA and 10 μM leupeptin, and lysed by sonication. The cell lysates were pelleted at 30000xg for 15 min at 4° C. and washed three times with 10 ml ice-cold 50 mM Tris-HCl, pH 7.4. Membranes were resuspended in 50 mM Tris-HCl, pH 7.4, containing 10 μM pargyline and 0.1% ascorbic acid, quickly frozen and stored at -70° C. until utilized.
(§6) Radioligand binding assays
Non-specific binding was determined in presence of 100 μM phentolamine. The reaction mixture was incubated for 30 min at 25° C. and then stopped by the addition of ice cold Tris-HCl buffer and rapid filtration through 0.2% polyethyleneimine pretreated Whatman GF/B fiber filters using Brandel cell harvester. The filters were then washed with 3×3 ml of ice-cold buffer and the radioactivity retained on the filters was counted in 10 ml of Filter Count (Packard) in a liquid scintillation spectrometer with a counting efficacy of 40%.
The inhibition of specific binding of the radioligands by the tested drugs was analyzed to estimate the IC50 value by using the non-linear curve-fitting program Allfit [A. De Lean et al., Am. J. Physiol.

cloned α1B adrenoceptor = target: T2, cloned α1B adrenoceptor (Mesocricetus auratus, UniProt P18841); assay: biochemical; format: binding; details: syrian hamster α1B in COS-7 cells; mean of 2-4 experiments in triplicate, agreed within 10%
T2 sequence (P18841 1-515): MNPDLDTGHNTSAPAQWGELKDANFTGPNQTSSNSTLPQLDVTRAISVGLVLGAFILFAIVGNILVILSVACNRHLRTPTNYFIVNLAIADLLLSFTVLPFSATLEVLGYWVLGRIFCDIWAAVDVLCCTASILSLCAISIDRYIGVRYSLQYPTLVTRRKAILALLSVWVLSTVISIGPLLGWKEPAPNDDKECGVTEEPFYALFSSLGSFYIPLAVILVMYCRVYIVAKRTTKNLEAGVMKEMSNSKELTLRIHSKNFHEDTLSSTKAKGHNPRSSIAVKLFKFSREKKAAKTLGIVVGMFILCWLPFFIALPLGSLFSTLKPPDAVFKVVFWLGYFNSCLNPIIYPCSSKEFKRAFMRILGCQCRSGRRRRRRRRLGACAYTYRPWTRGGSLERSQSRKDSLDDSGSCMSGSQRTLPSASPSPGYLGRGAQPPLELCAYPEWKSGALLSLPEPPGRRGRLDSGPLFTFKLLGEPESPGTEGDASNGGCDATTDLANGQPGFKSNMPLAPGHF
Description: as §3, §4, §5, §6
(§7) Non-specific binding was determined in presence of 100 μM phentolamine. […] The filters were then washed with 3×3 ml of ice-cold buffer and the radioactivity retained on the filters was counted in 10 ml of Filter Count (Packard) in a liquid scintillation spectrometer with a counting efficacy of 40%.
(§8) The inhibition of specific binding of the radioligands by the tested drugs was analyzed to estimate the IC50 value by using the non-linear curve-fitting program Allfit [A. De Lean et al., Am. […]

cloned α1D adrenoceptor = target: T3, cloned α1D adrenoceptor (Rattus norvegicus, UniProt P23944); assay: Radioligand binding, cloned α1D adrenoceptor (previously α1A/D) expressed in COS-7 cells; details: rat brain α1D in COS-7 cells; mean of 2-4 experiments in triplicate, agreed within 10%
T3 construct: expressed in transfected cells; host or cells: COS-7 (transient)
T3 sequence (P23944 1-561): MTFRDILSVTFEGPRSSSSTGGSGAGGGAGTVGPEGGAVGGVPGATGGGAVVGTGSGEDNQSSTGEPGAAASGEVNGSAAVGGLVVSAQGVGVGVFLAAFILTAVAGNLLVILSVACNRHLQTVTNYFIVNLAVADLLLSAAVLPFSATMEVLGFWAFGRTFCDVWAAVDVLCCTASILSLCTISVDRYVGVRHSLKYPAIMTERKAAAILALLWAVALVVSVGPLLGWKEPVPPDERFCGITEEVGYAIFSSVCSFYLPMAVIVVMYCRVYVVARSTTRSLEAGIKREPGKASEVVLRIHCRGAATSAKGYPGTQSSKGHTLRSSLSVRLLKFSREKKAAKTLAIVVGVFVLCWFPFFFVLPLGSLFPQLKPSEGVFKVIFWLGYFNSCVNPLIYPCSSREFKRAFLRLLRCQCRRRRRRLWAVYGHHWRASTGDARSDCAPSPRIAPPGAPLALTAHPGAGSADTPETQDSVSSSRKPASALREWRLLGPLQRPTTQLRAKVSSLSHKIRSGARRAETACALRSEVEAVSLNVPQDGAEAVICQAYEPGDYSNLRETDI
Description: as §3, §4, §5, §6, §7, §8

[4] = ip, mice, intraperitoneal, mortality 7 days after administration, read-out: DL50 i.p.
[5] = mice, oral, mortality 7 days after administration, read-out: DL50 p.o.

| Compound | IC50 [1] [nM] | LD50 at 168 h (in vivo; [4]) [mg/kg] | LD50 at 168 h (in vivo; [5]) [mg/kg] | ED25 [2] [mg/kg] | ED25 [3] [mg/kg] | IC50 (cloned α1A adrenoceptor) [nM] | LD50 at 168 h (in vivo; ip) [mg/kg] | LD50 at 168 h (in vivo; po) [mg/kg] | IC50 (cloned α1B adrenoceptor) [nM] | IC50 (cloned α1D adrenoceptor) [nM] |
| --- | --- | --- | --- | --- | --- | --- | --- | --- | --- | --- |
| COc1cc2nc(N3CCN(C(=O)CC(=O)c4ccccc4)CC3)nc(N)c2cc1OC [Example 13, 4-Amino-6,7-dimethoxy-2-[4-(2-benzoylacetyl)-1-piperazinyl]-quinazoline] | 7 | 142 | > 3000 | 0.056 | 2.42 |  |  |  |  |  |
| COc1cc2nc(N3CCN(C(=O)COc4c(OC)cccc4C(C)C)CC3)nc(N)c2cc1OC.Cl [Example 24, 4-Amino-6,7-dimethoxy-2-{4-[(2-methoxy-6-isopropylphenoxy)acetyl]-1-piperazinyl}-quinazoline hydrochloride] | 28 |  |  |  |  | 17.2 | 268 | > 3000 |  |  |
| COc1cc2nc(N(C)CCCN3CCN(c4ccccc4OC)CC3)nc(N)c2cc1OC.Cl.Cl.O.O [Example 31, 4-Amino-6,7-dimethoxy-2-{N-methyl-N-{3-[4-(2-methoxyphenyl)-1-piperazinyl]propyl}amino}-quinazoline dihydrochloride dihydrate] | 12 | 70 | > 2000 |  |  |  |  |  |  |  |
| COc1cc2nc(N3CCC(c4ccccc4)(c4ccccc4)CC3)nc(N)c2cc1OC [Example 32, 4-Amino-6,7-dimethoxy-2-(4,4-diphenyl-1-piperidinyl)-guinazoline hydrochloride . 0.65 H2 O] | 259 | > 500 | > 2000 |  |  |  |  |  |  |  |
| COc1ccc(CC2c3cc(OC)c(OC)cc3CCN2c2nc(N)c3cc(OC)c(OC)cc3n2)cc1OC (centres unmarked) [Example 33, 4-Amino-6,7-dimethoxy-2-[1-(3,4-dimethoxybenzyl)-6,7-dimethoxy-1,2,3,4-tetrahydroisoguinolin-2-yl]-quinazoline hydrochloride hydrate] | 287 | 884 | > 3000 |  |  | 950 |  |  | 206 | 1550 |
| COc1cc2nc(N3CCN(C(=O)C4CCCO4)CC3)nc(N)c2cc1OC (centres unmarked) [Terazosin, reference compound] |  |  |  |  |  | 66.6 |  |  |  | 106 |
